pIC50: −log10 of the molar value.
Assays:
GSK3β = target: T1, GSK3β (Homo sapiens, UniProt P49841); test: Evaluation of GSK3β activity: inhibition of purified GSK3β, [γ-32P]ATP / GS-2 peptide filter assay; assay type: biochemical; details: for pIC50: purified GSK3β expressed in Sf9 cells, 15 μM ATP, GS-2 peptide substrate, 30 min at 30° C.; for inhibiting activity on GSK3β activity (in words): summary of Table 1
T1 construct: made in house; host or cells: insect Sf9 cells
Procedure: Compounds were evaluated for inhibition against purified GSK3β. GSK3β was expressed in and purified from insect Sf9 cells. Compounds (10 μM) were assayed; following a 1/100 dilution of the enzyme in 1 mg/ml BSA, 10 mM DTT, with 5 μl of 40 μM GS-2 peptide as a substrate, in a buffer, in the presence of 15 μM [γ-^32P]ATP (3000 Ci/mmol; 1 mCi/ml) in a final volume of 30 μl. After 30-min incubation at 30° C., 25-μl aliquots of supernatant were spotted onto 2.5×3 cm pieces of Whatman P81 phosphocellulose paper, and, 20 s later, the filters were washed five times (for at least 5 min each time) in a solution of 10 ml of phosphoric acid/liter of water. The wet filters were counted in the presence of 1 ml of scintillation fluid.

MPTP-treated mice = test: Anti-Parkinsonian activity in MPTP-treated mice with a sub threshold dose of L-DOPA (motor activity counts); assay type: in vivo, C57 BL/6 mice; details: MPTP-treated mice (2×40 mg/kg s.c.); compound 3 mg/kg orally + 5 mg/kg L-Dopa s.c.; counts with Vehicle (no MPTP) = 100%
Procedure: Animals: six month old male C57 BL/6 mice, weighing 22-25 g were used. Following arrival at the laboratory, the mice were allowed to acclimatize for two weeks in a room with controlled temperature (21±1° C.), and a constant light-dark schedule (12 hr on/12 hr off, lights on between 06.00 and 18.00 hrs). Free access to food and water was maintained throughout. They were housed in groups of 12 animals and tested only during the hours of light (08.00-15.00 hrs). All testing was performed in a normally lighted room.
Behavioural measurements and apparatus: An automated device, consisting of macrolon rodent test cages (40×25×15 cm), each placed within two series of infra-red beams (at two different heights, one low and one high, 2 and 8 cm, respectively, above the surface of the sawdust, 1 cm deep), was used to measure spontaneous and/or drug-induced motor activity of 1-methyl 4-phenyl 1,2,3,6-tetrahydropyridine (MPTP) and control mice. The following parameters were measured: LOCOMOTION was measured by the low grid of infrared beams. Counts were registered only when the mouse in the horizontal plane, ambulating around the test-cage. REARING was registered throughout the time when at least one high level beam was interrupted, i.e. the number of counts registered was proportional to the amount of time spent rearing. TOTAL ACTIVITY was measured by a sensor (a pick-up similar to a gramophone needle, mounted on a lever with a counterweight) with which the test cage was constantly in contact. The sensor registered all types of vibration received from the test cage, such as those produced both by locomotion and rearing as well as shaking, tremors, scratching and grooming.
Behavioral measurements (locomotion, rearing and total activity): Twelve days after MPTP injections (2×40 mg/kg, s.c., 24 hr interval), the mice were administered orally with the different compounds at 3 mg/kg or vehicle (0.1% Tween-80 in 1% methylcellulose) and immediately thereafter placed in the activity test chambers and their motor behaviors were monitored for 60 min. After 60 min, the mice were injected with 5 mg/kg L-Dopa (s.c) and then replaced in the test chamber and activity measurements maintained for an additional 300 min.
Table 2 presents the locomotion, rearing and total activity counts of MPTP-treated and control mice administered either tested substances or vehicle administered with a sub threshold dose of L-Dopa.

NMDA-activated currents = test: Electrophysiological characterisation of NMDA-activated currents in freshly isolated hippocampal neurones (whole-cell patch clamp); assay type: cell-based, Wistar rats; details: for % Inhibition Peak Current / % Inhibition Steady State Current: 1 μM substance, 10 μM glycine, 300 μM L-aspartate, holding potential −70 mV, mean of at least 4 cells; for blocking activity on NMDA-activated currents (in words): summary of Table 3, 1 μM
Procedure: Isolation of hippocampal neurons: Wistar rats (12-14 days) were decapitated without anesthesia and the hippocampus was removed. It was manually cut into slices (0.2-0.4 mm), in a solution containing (mM): 150 NaCl; 5 KCL; 1.25 NaH2PO4; 2 CaCl2; 2 MgCl2; 26 NaHCO3; 20 glucose. Slices were preincubated in this solution for 30 min at room temperature. The enzymatic treatment proceeded in the same solution with lower Ca^2+ concentration (0.5 mm) containing 0.4 mg/ml protease from aspergillus oryzae. The incubation in the enzyme solution proceeded at 32° C. within 10 min. Slices were kept subsequently in enzyme-free solution containing normal Ca^2±concentration and used within 6-8 h for obtaining isolated neurons. Throughout the entire procedure the solutions were continuously saturated with a 95% O2 and 5% CO2 gas mixture to maintain pH of 7.4. For cell dissociation the slice was transferred into the extracellular solution containing (mM): 150 NaCl; 5 KCl; 2 CaCl2; 10 n-2-hydroxyethylpiperazine-n′-2-ethanesulphonic acid (Hepes); pH adjusted with NaOH to 7.4. Single cells were isolated from CA and CA3 zones of hippocampal slices by vibrodissociation method. […] After isolation they were usually suitable for the recording for 1-2 h.
Salines and chemicals: The contents of the extracellular solution was as follows (in mM): 130 NaCl, 5KCl, 2CaCl2, 20 n-2-hydroxyethylpiperazine-n′-2-ethansulfonic acid (Hepes); 0.1 μm TTX, 10 μm glycine, […] 1-aspartate; pH was adjusted with NaOH to 7.4.
The contents of the intracellular solution were as follows (in mM): 110 CsF, 20 Tris-HCl (pH=7.2). L-aspartate and glycine solutions were prepared on the day of experiment.
The tested substances were dissolved in DMSO.
Current recording and data analysis: The drug-containing solutions were applied by the fast “concentration clamp” method using “jumping table” set-up. The currents were recorded with patch clamp technique in the whole-cell configuration. Recording of the currents was performed using EPC-7 L/M patch-clamp amplifier.
NMDA-activated currents: The currents were filtered at 3 kHz (three-pole active Bessel filter) digitally sampled at the rate 6000 μs per point for NMDA activated currents. NMDA-induced transmembrane currents were measured in the presence of 10 μM glycine and 300 μM L-aspartate in the control and test solutions. The currents were recorded at holding potential −70 mV.
Calculations: The inhibition of current at 1 μM of the substance was averaged at least for 4 cells. The effect of substance was measured as the mean ratio I/Io where I was the current under the action of substance and Io was the current in control conditions.

T1 sequence (P49841 whole entry, species assumed): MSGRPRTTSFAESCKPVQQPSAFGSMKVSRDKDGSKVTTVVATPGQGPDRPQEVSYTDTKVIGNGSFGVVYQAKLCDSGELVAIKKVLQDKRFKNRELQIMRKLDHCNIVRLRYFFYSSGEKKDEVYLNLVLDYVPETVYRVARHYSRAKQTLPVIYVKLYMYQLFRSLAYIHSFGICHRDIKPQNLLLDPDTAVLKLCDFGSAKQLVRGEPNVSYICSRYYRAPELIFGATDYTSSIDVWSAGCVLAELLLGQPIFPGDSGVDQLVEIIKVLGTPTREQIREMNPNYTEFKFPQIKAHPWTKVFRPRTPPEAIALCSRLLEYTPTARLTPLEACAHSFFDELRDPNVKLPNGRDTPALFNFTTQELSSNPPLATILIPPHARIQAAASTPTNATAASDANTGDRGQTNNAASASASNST

pIC50 (GSK3β) | inhibiting activity on GSK3β activity (in words) (GSK3β) | SMILES | LOCOMOTION (MPTP-treated mice) | REARING (MPTP-treated mice) | TOTAL ACTIVITY (MPTP-treated mice) | % Inhibition Peak Current (NMDA-activated currents) | % Inhibition Steady State Current (NMDA-activated currents) | blocking activity on NMDA-activated currents (in words) (NMDA-activated currents)
4.83 | significant inhibiting activity | N#Cc1ccc(NCCc2c[nH]c3ccccc23)cc1C#N [N-(3,4-dicyanophenyl)-tryptamine] | 18% | 25% | 47% | 93.4% | 66.4% | significant blocking activity
4.66 | significant inhibiting activity | COc1ccc2[nH]cc(CCNc3ccc(C(=O)O)cc3[N+](=O)[O-])c2c1 [N-(4-Carboxy-2-nitrophenyl)-5-methoxytryptamine] | 22% | 30% | 46% | 89.92% | 74.14% | significant blocking activity

— patent US8236858B2, “Substituted aryl-indole compounds and their kynurenine/kynuramine-like metabolites as therapeutic agents” (Neurim Pharmaceuticals (1991) Ltd., priority 2006, dated 2012)
